Measured values from US9096500B2, “Acyl sulfonamide compounds” (Pfizer Limited, priority 2010, dated 2015).
pIC50: −log10 of the molar value.

Molecular target: T1, Nav1.7 (or SCN9A) channel (Homo sapiens, UniProt Q15858)
T1 construct: expressed in transfected cells
Assay: Nav1.7 (hSCN9A) electrophysiology assay, PatchXpress platform
Type: cell-based
Details: estimated IC50 from single point electrophysiology data, HEK cells stably expressing hSCN9A, held at V1/2 of inactivation, read-out: Nav1.7 EIC50
Method in brief: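 HEK cells stably expressing hSCN9A were recorded by whole-cell voltage clamp, including on PatchXpress, at 22–24°C with extracellular solution at pH 7.4. A 20 msec step to 0 mV followed an 8 s conditioning prepulse to the empirically determined inactivation V1/2. Inhibition was taken from current amplitude before vs after compound.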

T1 sequence (Q15858 whole entry): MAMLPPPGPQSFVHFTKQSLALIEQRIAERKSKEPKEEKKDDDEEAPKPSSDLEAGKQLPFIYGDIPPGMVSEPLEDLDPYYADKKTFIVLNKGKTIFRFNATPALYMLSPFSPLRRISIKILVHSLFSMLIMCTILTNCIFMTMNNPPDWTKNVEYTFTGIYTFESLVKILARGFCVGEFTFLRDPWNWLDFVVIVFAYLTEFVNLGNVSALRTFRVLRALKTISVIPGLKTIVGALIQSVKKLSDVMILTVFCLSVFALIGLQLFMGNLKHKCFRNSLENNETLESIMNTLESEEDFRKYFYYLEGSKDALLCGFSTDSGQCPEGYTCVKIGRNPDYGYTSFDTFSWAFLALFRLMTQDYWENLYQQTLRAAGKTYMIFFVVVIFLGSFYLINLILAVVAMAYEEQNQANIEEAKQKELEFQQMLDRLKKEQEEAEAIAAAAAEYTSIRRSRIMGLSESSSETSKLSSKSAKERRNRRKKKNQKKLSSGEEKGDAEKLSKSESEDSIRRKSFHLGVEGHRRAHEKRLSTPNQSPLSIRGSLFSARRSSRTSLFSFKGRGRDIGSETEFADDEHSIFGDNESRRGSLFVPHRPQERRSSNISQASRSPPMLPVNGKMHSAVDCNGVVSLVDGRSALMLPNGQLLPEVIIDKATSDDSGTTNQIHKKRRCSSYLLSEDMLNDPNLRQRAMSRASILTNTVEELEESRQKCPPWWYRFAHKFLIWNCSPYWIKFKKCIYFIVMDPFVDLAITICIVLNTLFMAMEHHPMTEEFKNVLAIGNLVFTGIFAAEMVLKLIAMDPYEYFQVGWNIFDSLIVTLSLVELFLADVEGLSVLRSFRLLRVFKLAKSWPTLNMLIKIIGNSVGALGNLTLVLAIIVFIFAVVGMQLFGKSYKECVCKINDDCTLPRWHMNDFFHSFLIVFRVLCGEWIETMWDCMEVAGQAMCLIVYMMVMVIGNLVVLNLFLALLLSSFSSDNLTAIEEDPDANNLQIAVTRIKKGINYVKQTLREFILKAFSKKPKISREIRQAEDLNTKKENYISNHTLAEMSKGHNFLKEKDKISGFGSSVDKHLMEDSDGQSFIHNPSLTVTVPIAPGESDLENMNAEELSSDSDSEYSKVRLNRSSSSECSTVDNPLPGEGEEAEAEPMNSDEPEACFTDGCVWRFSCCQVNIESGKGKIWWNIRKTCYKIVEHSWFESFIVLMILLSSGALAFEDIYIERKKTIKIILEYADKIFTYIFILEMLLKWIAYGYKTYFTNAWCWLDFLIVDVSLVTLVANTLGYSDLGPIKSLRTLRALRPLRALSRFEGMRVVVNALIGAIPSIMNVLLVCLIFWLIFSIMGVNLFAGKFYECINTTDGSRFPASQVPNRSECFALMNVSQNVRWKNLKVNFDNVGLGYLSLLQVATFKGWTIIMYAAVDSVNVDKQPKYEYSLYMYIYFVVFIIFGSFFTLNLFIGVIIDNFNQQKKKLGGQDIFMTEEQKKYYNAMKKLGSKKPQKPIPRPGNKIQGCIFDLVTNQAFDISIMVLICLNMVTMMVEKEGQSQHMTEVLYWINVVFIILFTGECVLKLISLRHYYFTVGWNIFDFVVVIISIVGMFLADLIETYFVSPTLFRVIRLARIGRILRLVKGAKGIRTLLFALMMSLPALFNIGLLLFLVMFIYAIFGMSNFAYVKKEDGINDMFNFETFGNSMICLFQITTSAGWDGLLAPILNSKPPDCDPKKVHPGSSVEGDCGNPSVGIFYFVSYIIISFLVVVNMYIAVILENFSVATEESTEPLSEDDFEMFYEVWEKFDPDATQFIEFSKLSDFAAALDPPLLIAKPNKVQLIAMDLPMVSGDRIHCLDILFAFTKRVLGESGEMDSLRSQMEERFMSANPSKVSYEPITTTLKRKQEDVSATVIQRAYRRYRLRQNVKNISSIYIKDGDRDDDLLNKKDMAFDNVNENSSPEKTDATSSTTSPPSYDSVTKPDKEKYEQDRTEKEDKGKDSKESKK

pIC50	Structure (SMILES)
6.33	CS(=O)(=O)NC(=O)c1cc(F)c(COc2cc(Cl)ccc2Cl)cc1F [Example 134, 4-[(2,5-dichlorophenoxy)methyl]-2,5-difluoro-N-(methylsulfonyl)benzamide]
< 5.52	CS(=O)(=O)NC(=O)c1cc(F)c(COc2ccc(Cl)cc2C#N)cc1F [Example 135, 4-[(4-chloro-2-cyanophenoxy)methyl]-2,5-difluoro-N-(methylsulfonyl)benzamide]
< 5.52	CS(=O)(=O)NC(=O)c1cc(F)c(COc2cccc(N3CCOCC3)c2)cc1F [Example 136, 2,5-difluoro-N-(methylsulfonyl)-4-[(3-morpholin-4-ylphenoxy)methyl]benzamide]
< 5.52	CS(=O)(=O)NC(=O)c1cc(F)c(COc2ccccc2C#N)cc1F [Example 137, 4-[(2-cyanophenoxy)methyl]-2,5-difluoro-N-(methylsulfonyl)benzamide]
5.38	CS(=O)(=O)NC(=O)c1cc(F)c(COc2ccc(-c3cocn3)cc2)cc1F [Example 138, 2,5-difluoro-N-(methylsulfonyl)-4-{[4-(1,3-oxazol-4-yl)phenoxy]methyl}benzamide]
< 5.52	COc1cc(OCc2cc(F)c(C(=O)NS(C)(=O)=O)cc2F)ccc1-n1cccn1 [Example 139, 2,5-difluoro-4-{[3-methoxy-4-(1H-pyrazol-1-yl)phenoxy]methyl}-N-(methylsulfonyl)benzamide]
5.66	CS(=O)(=O)NC(=O)c1cc(F)c(COc2c(F)ccc(F)c2F)cc1F [Example 140, 2,5-difluoro-N-(methylsulfonyl)-4-[(2,3,6-trifluorophenoxy)methyl]benzamide]
6.48	CS(=O)(=O)NC(=O)c1cc(F)c(COc2ccc(C(F)(F)F)cc2)cc1F [Example 141, 2,5-difluoro-N-(methylsulfonyl)-4-{[4-(trifluoromethyl)phenoxy]methyl}benzamide]
6.22	CS(=O)(=O)NC(=O)c1cc(F)c(COc2ccc(F)c(C(F)(F)F)c2)cc1F [Example 142, 2,5-difluoro-4-{[4-fluoro-3-(trifluoromethyl)phenoxy]methyl}-N-(methylsulfonyl)benzamide]
5.01	CC(C)Oc1ccc(F)cc1OCc1cc(F)c(C(=O)NS(C)(=O)=O)cc1F [Example 143, 2,5-difluoro-4-[(5-fluoro-2-isopropoxyphenoxy)methyl]-N-(methylsulfonyl)benzamide]
6.82	CS(=O)(=O)NC(=O)c1cc(F)c(COc2ccc(OC(F)(F)F)cc2)cc1F [Example 144, 2,5-difluoro-N-(methylsulfonyl)-4-{[4-(trifluoromethoxy)phenoxy]methyl}benzamide]
5.64	CS(=O)(=O)NC(=O)c1cc(F)c(COc2ccc(F)cc2C2CC2)cc1F [Example 145, 4-[(2-cyclopropyl-4-fluorophenoxy)methyl]-2,5-difluoro-N-(methylsulfonyl)benzamide]
< 6.00	COc1ccc(OCc2cc(F)c(C(=O)NS(C)(=O)=O)cc2F)c(C#N)c1 [Example 146, 4-[(2-cyano-4-methoxyphenoxy)methyl]-2,5-difluoro-N-(methylsulfonyl)benzamide]
6.77	CC(C)c1ccc(OCc2cc(F)c(C(=O)NS(C)(=O)=O)cc2F)cc1 [Example 147, 2,5-difluoro-4-[(4-isopropylphenoxy)methyl]-N-(methylsulfonyl)benzamide]
< 6.00	CS(=O)(=O)NC(=O)c1cc(F)c(COc2ccc(Cl)cc2-c2ccno2)cc1F [Example 148, 4-[(4-chloro-2-isoxazol-5-ylphenoxy)methyl]-2,5-difluoro-N-(methylsulfonyl)benzamide]
5.40	CS(=O)(=O)NC(=O)c1cc(F)c(COc2c(F)cccc2Cl)cc1F [Example 149, 4-[(2-chloro-6-fluorophenoxy)methyl]-2,5-difluoro-N-(methylsulfonyl)benzamide]
6.30	COc1cc(C)cc(OCc2cc(F)c(C(=O)NS(C)(=O)=O)cc2F)c1 [Example 150, 2,5-difluoro-4-[(3-methoxy-5-methylphenoxy)methyl]-N-(methylsulfonyl)benzamide]
7.19	Cc1ccc(OCc2cc(F)c(C(=O)NS(C)(=O)=O)cc2F)cc1Cl [Example 151, 4-[(3-chloro-4-methylphenoxy)methyl]-2,5-difluoro-N-(methylsulfonyl)benzamide]
4.92	CS(=O)(=O)NC(=O)c1cc(F)c(COc2ccc(F)cc2C#N)cc1F [Example 153, 4-[(2-cyano-4-fluorophenoxy)methyl]-2,5-difluoro-N-(methylsulfonyl)benzamide]
4.96	CS(=O)(=O)NC(=O)c1cc(F)c(COc2cccc(C#N)c2)cc1F [Example 154, 4-[(3-cyanophenoxy)methyl]-2,5-difluoro-N-(methylsulfonyl)benzamide]
5.49	COc1ccc(OCc2cc(F)c(C(=O)NS(C)(=O)=O)cc2F)c(F)c1F [Example 155, 4-[(2,3-difluoro-4-methoxyphenoxy)methyl]-2,5-difluoro-N-(methylsulfonyl)benzamide]
5.64	COc1ccc2cccc(OCc3cc(F)c(C(=O)NS(C)(=O)=O)cc3F)c2c1 [Example 156, 2,5-difluoro-4-{[(7-methoxy-1-naphthyl)oxy]methyl}-N-(methylsulfonyl)benzamide]

pIC50	Structure (SMILES)
5.68	COc1ccc(OCc2cc(F)c(C(=O)NS(C)(=O)=O)cc2F)c(Cl)c1 [Example 157, 4-[(2-chloro-4-methoxyphenoxy)methyl]-2,5-difluoro-N-(methylsulfonyl)benzamide]
5.82	CS(=O)(=O)NC(=O)c1cc(F)c(COc2ccc(F)cc2)cc1F [Example 158, 2,5-difluoro-4-[(4-fluorophenoxy)methyl]-N-(methylsulfonyl)benzamide]
6.89	Cc1cc(OCc2cc(F)c(C(=O)NS(C)(=O)=O)cc2F)ccc1Cl [Example 159, 4-[(4-chloro-3-methylphenoxy)methyl]-2,5-difluoro-N-(methylsulfonyl)benzamide]
6.12	COc1ccc(OCc2cc(F)c(C(=O)NS(C)(=O)=O)cc2F)c2ccccc12 [Example 160, 2,5-difluoro-4-{[(4-methoxy-1-naphthyl)oxy]methyl}-N-(methylsulfonyl)benzamide]
6.14	Cc1cc(OCc2cc(F)c(C(=O)NS(C)(=O)=O)cc2F)cc(C)c1C#N [Example 162, 4-[(4-cyano-3,5-dimethylphenoxy)methyl]-2,5-difluoro-N-(methylsulfonyl)benzamide]
< 6.00	CS(=O)(=O)NC(=O)c1cc(F)c(COc2ccc(F)c(Cl)c2C#N)cc1F [Example 163, 4-[(3-chloro-2-cyano-4-fluorophenoxy)methyl]-2,5-difluoro-N-(methylsulfonyl)benzamide]
< 5.52	COc1ccc(OCc2cc(F)c(C(=O)NS(C)(=O)=O)cc2F)cc1 [Example 164, 2,5-difluoro-4-[(4-methoxyphenoxy)methyl]-N-(methylsulfonyl)benzamide]
6.13	CS(=O)(=O)NC(=O)c1cc(F)c(COc2cccc3ccccc23)cc1F [Example 165, 2,5-difluoro-N-(methylsulfonyl)-4-[(1-naphthyloxy)methyl]benzamide]
5.89	Cc1nc(-c2cccc(OCc3cc(F)c(C(=O)NS(C)(=O)=O)cc3F)c2)no1 [Example 166, 2,5-difluoro-4-{[3-(5-methyl-1,2,4-oxadiazol-3-yl)phenoxy]methyl}-N-(methylsulfonyl)benzamide]
5.59	Cc1c(OCc2cc(F)c(C(=O)NS(C)(=O)=O)cc2F)ccc(F)c1F [Example 167, 4-[(3,4-difluoro-2-methylphenoxy)methyl]-2,5-difluoro-N-(methylsulfonyl)benzamide]
5.51	CS(=O)(=O)NC(=O)c1cc(F)c(COc2cccc(N3CCCCC3)c2)cc1F [Example 168, 2,5-difluoro-N-(methylsulfonyl)-4-[(3-piperidin-1-ylphenoxy)methyl]benzamide]
< 5.52	COc1ccccc1COc1ccc(C(=O)NS(C)(=O)=O)cc1 [Example 169, 4-[(2-methoxybenzyl)oxy]-N-(methylsulfonyl)benzamide]
< 5.52	CS(=O)(=O)NC(=O)c1ccc(OCc2cccc(F)c2F)cc1 [Example 170, 4-[(2,3-difluorobenzyl)oxy]-N-(methylsulfonyl)benzamide]
5.54	CS(=O)(=O)NC(=O)c1ccc(OCc2ccc(F)cc2Cl)cc1 [Example 171, 4-[(2-chloro-4-fluorobenzyl)oxy]-N-(methylsulfonyl)benzamide]
< 5.52	CS(=O)(=O)NC(=O)c1ccc(OCc2ccc(C#N)cc2)cc1 [Example 172, 4-[(4-cyanobenzyl)oxy]-N-(methylsulfonyl)benzamide]
6.60	CS(=O)(=O)NC(=O)c1ccc(OCc2cc(Cl)cc(Cl)c2)cc1 [Example 173, 4-[(3,5-dichlorobenzyl)oxy]-N-(methylsulfonyl)benzamide]
5.89	CS(=O)(=O)NC(=O)c1ccc(OCC2CCCCC2)cc1 [Example 174, 4-(cyclohexylmethoxy)-N-(methylsulfonyl)benzamide]
5.68	CS(=O)(=O)NC(=O)c1ccc(OCc2cc(Cl)ccc2Cl)cc1 [Example 175, 4-[(2,5-dichlorobenzyl)oxy]-N-(methylsulfonyl)benzamide]
< 6.00	CS(=O)(=O)NC(=O)c1ccc(OCc2ccc(F)cc2)cc1 [Example 176, 4-[(4-fluorobenzyl)oxy]-N-(methylsulfonyl)benzamide]
5.68	CS(=O)(=O)NC(=O)c1ccc(OCc2ccc(F)c(F)c2)cc1 [Example 177, 4-[(3,4-difluorobenzyl)oxy]-N-(methylsulfonyl)benzamide]
6.09	CS(=O)(=O)NC(=O)c1ccc(OCc2ccc(Cl)c(F)c2)cc1 [Example 178, 4-[(4-chloro-3-fluorobenzyl)oxy]-N-(methylsulfonyl)benzamide]
< 6.00	CS(=O)(=O)NC(=O)c1ccc(OCc2cccc(C(F)(F)F)c2)cc1 [Example 179, N-(methylsulfonyl)-4-{[3-(trifluoromethyl)benzyl]oxy}benzamide]
